Test results reported in patent US20050267016A1, “CD-10 activated prodrug compounds” (priority 2001, published 2005).
Where two headings read alike, the source gives them in different places. Marks after values point to notes of the source that are not given here.

Experiments:
[1] = system: 22 RV1 (prostate carcinoma) cells; experiment: 3H-thymidine incorporation, 22RV1 cells; format: cell-based; conditions: Homo sapiens, Table 6, 48 hours, read-out: IC50 22RV1 CD10−PSA+
Description: Adherent cells, LNCaP (prostate carcinoma), PC-3 (prostate carcinoma) and 22 RV1 (prostate carcinoma), were cultured in DMEM media containing 10% heat inactivated fetal calf serum (FCS). On the day of the study the cells were detached from the plate with a trypsin solution. The collected cells were washed and resuspended at a concentration of 0.25×10^6 cells/ml in DMEM containing 10% FCS. 100 μl of cell suspension were added to 96 well plates and the plates were incubated for 3 hours to allow the cells to adhere. […] The plates were then incubated for 24 hours, pulsed with 1:0 μl of a 100 μCi/ml ^3H-thymidine and incubated for an additional 24 hours (total incubation time 48 hours). The plates were harvested using a 96 well Harvester (Packard Instruments) and counted on a Packard Top Count Counter. Four parameter logistic curves were fitted to the ^3H-thymidine incorporation as a function of drug molarity using Prism software to determine IC50 values.

[2] = Repeat-dose MTD in tumor bearing mice; format: in vivo; conditions: mouse, in vivo
Description: (§1) In repeat-dose studies in tumor bearing mice, groups of ten mice were dosed with various amounts of prodrug for a total of five doses at either five day or 1 week intervals. […] Thus, the conclusion remains the same in that the prodrugs permit a much greater amount of therapeutic agent to be delivered to the body as a whole and to the vicinity of the target cell.
(§2) As would be expected, when a dose similar to the single-dose MTD (75 mg/kg) (See Example 16) was administered as a repeat-dose it was less well tolerated. […] All treated animals lost weight progressively throughout the study, while the vehicle control group gained up to 12% of the mean initial body weight. (FIG. 20). Two treated animals in the high dose group were terminated due to signs of toxicity, with body weight loss of greater that 20% of their initial weight. […] Thus cumulative toxicity resulted from repeat-dosing at these relatively high dose-levels.

[3] = system: LS174t tumor bearing mice; experiment: Repeat-dose MTD in tumor bearing mice; format: in vivo
Description: as §1, §2

[4] = system: LNCaP tumors; experiment: LNCaP xenograft in SCID mice, Q6DX2 (Example 24); format: in vivo, CB17.SCID mice; parameters: key to Tumor Weight: tumor weight in mg
Description: The mean tumor weight was approximately 200 mg at Day 0. […] Studies were terminated at Day 60.

[5] = system: LNCaP human prostate carcinoma xenografts
Description: LNCaP human prostate carcinoma cells express high levels of CD10 on the surface. Suc-βAla-Leu-Ala-Leu-Dox and Suc-Leu-Ala-Gly-Dox were tested at a single dose level Q7Dx5. […] The mice were weighed and tumors were measured (by caliper) at least once a week prior to start of dosing (Day 0), then twice a week during the study. Immediately before the start of dosing (Study Day −2 to Day 0), mice were randomized to various groups based on the weight of the tumors. […] Mice were euthanized after the tumors reached a cutoff weight of 1.5 g (cancer endpoint), or when mice suffered over 25% weight loss (toxic endpoint). Studies were terminated at Day 60.

[6] = system: Parental CHO cells; experiment: 3H thymidine proliferation assay, parental CHO; format: cell-based, Chinese Hamster; conditions: for IC50: Cricetulus griseus; for Ratio Suc-β-Ala-Ile-Ala-Leu/Dox: Parental CHO, ratio of IC50
[7] = Metabolism and clearance in normal mice (plasma and urine, LC MS/MS); format: in vivo; conditions: after Suc-βAla-Ile-Ala-Leu-Dox 117 mg/kg
[8] = system: normal mice; conditions: mouse, in vivo; cited from earlier work
[9] = system: CD10 transfected CHO cells, DB4; experiment: 3H thymidine proliferation assay, CD10 transfected CHO DB4
Description: (§3) The fully assembled coding region was sub-cloned into a mammalian expression vector, downstream of the hCMV-MIE promoter. DNA sequence analysis confirmed sequence identity with the coding sequence of human CD10 (Genbank accession number Y00811). The expression plasmid was linearized and stably transfected into CHO—S cells. CD10 expressing transfectant clones were selected under 500 ug/mL of hygromycin and screened by flow cytometry for cell-surface CD10 expression using a commercially available anti-CD10-FITC antibody.

[10] = system: CD10 transfected CHO cells, Clone #5; experiment: 3H thymidine proliferation assay, CD10 transfected CHO Clone #5; conditions: Cricetulus griseus, read-out: IC50 Clone #5
Description: as §3

[11] = system: CD10 transfected CHO cells, Clone #7; experiment: 3H thymidine proliferation assay, CD10 transfected CHO Clone #7
Description: as §3

[12] = Second single dose Maximum Tolerated Dose (SD-MTD) study, 49 days; conditions: mouse, in vivo, iv
Description: In a second single dose Maximum Tolerated Dose (SD-MTD) study, groups of five normal ICR mice were administered intravenous bolus doses of Suc-βAla-Leu-Ala-Leu-Dox. The mice were observed daily for 49 days and body weights measured twice weekly.
In a second single dose Maximum Tolerated Dose (SD-MTD) study, groups of five normal ICR mice were administered intravenous bolus doses of Suc-Leu-Ala-Leu-Dox. The mice were observed daily for 49 days and body weights measured twice weekly.
In a second single dose Maximum Tolerated Dose (SD-MTD) study, groups of five normal ICR mice were administered intravenously bolus doses of Suc-Ile-Ala-Leu-Dox. The mice were observed daily for 49 days and body weights measured twice weekly.
In a second single dose Maximum Tolerated Dose (SD-MTD) study, groups of five normal ICR mice were administered intravenous bolus doses of Suc-βAla-Ile-Ala-Leu-Dox. The mice were observed daily for 49 days and body weights measured twice weekly.

[13] = mouse, in vivo, iv, 100 umol/kg
Description: Plasma was obtained from three individual animals in each group at 5 minutes, 1, 2, 4, or 6 hr.

[14] = system: PC-3 cell homogenate; experiment: Hydrolysis by cultured human cell homogenates; format: biochemical; conditions: 12.5 μg/mL, up to 1 hr, 37° C., pH 7.2
Description: In addition, 1 μM phosphoramidon, a CD10 inhibitor was included in incubations with LNCaP cell homogenate. To estimate specific activity protein content was estimated in the soluble portion of the homogenates. Results expressed as protein specific activity (FIG. 12) indicate that LNCaP cells which are known to contain CD10 show the greatest Suc-Ile-Ala-Leu-Dox hydrolyzing activity.

[15] = Dose 75 mg/kg (Table 19), Q7DX5

SMILES: COc1cccc2c1C(=O)c1c(O)c3c(c(O)c1C2=O)C[C@@](O)(C(=O)CO)C[C@@H]3O[C@H]1C[C@H](N)[C@H](O)[C@H](C)O1 [Doxorubicin, reference compound]
- IC50 [1]: 0.03 µM
- MTD at 60 days ([2]; Q 7D × 5, tumor bearing mice): 4 mg/kg
- Repeat Dose MTD, doxorubicin equivalent dose (in parentheses) ([3]; Q 7D × 5): 4 (4) mg/kg
- RD-MTD as total exposure after 5 doses ([3]; total of 5 doses): 20 mg/kg doxorubicin equivalent
- Toxic Endpt. ([4]; 3 mg/kg Q6DX2): 1
- % Tumor Growth Inhibition ([4]; 3 mg/kg Q6DX2, Day 12): 21 ± 8%
- Tumor Weight ([4]; 3 mg/kg Q6DX2, Day 12): 328 ± 35
- Survivor (day 22) ([4]; 3 mg/kg Q6DX2, groups of ten): 9
- Toxic Endpt. ([4]; 4 mg/kg Q6DX2): 2
- % Tumor Growth Inhibition ([4]; 4 mg/kg Q6DX2, Day 12): 26 ± 6%
- Tumor Weight ([4]; 4 mg/kg Q6DX2, Day 12): 310 ± 25
- Survivor (day 22) ([4]; 4 mg/kg Q6DX2, groups of ten): 8
- Tumor Growth Inhibition (% over control) ([5]; Dose 5 mg/kg, Q7DX5): 32.5%
- Tumor Weight (mg) D14 ([5]; Dose 5 mg/kg, Q7DX5): D14: 567 ± 77 (n = 6) mg
- Toxicity (Weight Loss >25%) ([5]; male, NCr nude, mouse, in vivo, 5 mg/kg, 60 days): 4/6
- IC50 ([6]; CHO, Tables 25, 26, read-out: IC50 Parental CHO): 0.51 µM
- IC50 ([6]; CHO cells, average, read-out: average IC50 in CHO cells): 0.57 µM
- Urine (% adm. dose) 2 hr ([7]; collected 0-2 hours): 0.21 % adm. dose
- Urine (% adm. dose) 24 hr ([7]; collected 2-24 hours): 0.51 % adm. dose
- MTD of doxorubicin alone, estimated from the standard safe efficacious dose [8]: 4 mg/kg
- IC50 ([9]; Cricetulus griseus, CHO, read-out: IC50 DB4): 0.31 µM
- IC50 [10]: 0.81 µM
- IC50 ([11]; Cricetulus griseus, CHO, read-out: IC50 Clone #7): 0.64 µM

SMILES: CC[C@H](C)[C@H](NC(=O)CCNC(=O)CCC(=O)O)C(=O)N[C@@H](C)C(=O)N[C@@H](CC(C)C)C(=O)N[C@H]1C[C@H](O[C@H]2C[C@](O)(C(=O)CO)Cc3c(O)c4c(c(O)c32)C(=O)c2c(OC)cccc2C4=O)O[C@@H](C)[C@H]1O [Suc-βAla-Ile-Ala-Leu-Dox]
- MTD ([2]; total of 5 doses, read-out: RD-MTD as total exposure after 5 doses): ~150 mg/kg
- animals terminated due to signs of toxicity ([3]; 68 mg/kg Q5DX5, groups of ten): Two
- Ratio Suc-β-Ala-Ile-Ala-Leu/Dox [6]: 49
- Ratio Suc-β-Ala-Ile-Ala-Leu/Dox ([6]; listed as Suc-β-Ala-Ile-Ala-Leu): 96
- Ratio Suc-β-Ala-Ile-Ala-Leu/Dox ([9]; DB4, ratio of IC50): 14
- Ratio Suc-β-Ala-Ile-Ala-Leu/Dox ([11]; Clone #7, ratio of IC50): 17

SMILES: COc1cccc2c1C(=O)c1c(O)c3c(c(O)c1C2=O)C[C@@](O)(C(=O)CO)C[C@@H]3O[C@H]1C[C@H](NC(=O)[C@H](CC(C)C)NC(=O)[C@H](C)NC(=O)[C@H](CC(C)C)NC(=O)CCNC(=O)CCC(=O)O)[C@H](O)[C@H](C)O1 [Suc-βAla-Leu-Ala-Leu-Dox]
- MTD [12]: 50 mg/kg
- Toxic Endpt. ([4]; 40 mg/kg Q6DX2): 0
- Tumor Weight ([4]; 40 mg/kg Q6DX2, Day 12): 244 ± 25
- Survivor (day 22) ([4]; 40 mg/kg Q6DX2, groups of ten): 10
- Toxic Endpt. ([4]; 50 mg/kg Q6DX2): 5
- Tumor Weight ([4]; 50 mg/kg Q6DX2, Day 12): 168 ± 29
- Survivor (day 22) ([4]; 50 mg/kg Q6DX2, groups of ten): 5
- Toxic Endpt. ([4]; 62 mg/kg Q6DX2): 6
- Tumor Weight ([4]; 62 mg/kg Q6DX2, Day 12): 196 ± 22
- Survivor (day 22) ([4]; 62 mg/kg Q6DX2, groups of ten): 4
- Tumor Growth Inhibition (% over control) D14 [5, 15]: D14: 53.4** %
- Tumor Growth Inhibition (% over control) D21 [5, 15]: D21: 66.2** %
- Tumor Weight (mg) D14 [5, 15]: D14: 391 ± 70 (n = 7) mg
- Tumor Weight (mg) D21 [5, 15]: D21: 318 ± 67 (n = 7) mg
- Toxicity (Weight Loss >25%) ([5]; Dose 75 mg/kg (Table 19), Q7DX5, mice affected/total): 7/7
- AUC(0-t) [13]: 806 µM·h

SMILES: CC[C@H](C)[C@H](NC(=O)CCC(=O)O)C(=O)N[C@@H](C)C(=O)N[C@@H](CC(C)C)C(=O)N[C@H]1C[C@H](O[C@H]2C[C@](O)(C(=O)CO)Cc3c(O)c4c(c(O)c32)C(=O)c2c(OC)cccc2C4=O)O[C@@H](C)[C@H]1O [Suc-Ile-Ala-Leu-Dox]
- hydrolysis by homogenate [14]: not
